EP0124925A1, “Derivatives of d-2-(6-methoxy-2-naphthyl)-propionic acid having therapeutical activity, process for their preparation and pharmaceutical compositions containing them” (FARMA RESA SrL, priority 1983, dated 1984)
Where a name gives a salt, the structure may show the parent alone.

Columns and labels:
[1] = mucolithic activity: viscosity of expectorate; settings: 0.05M, one hour incubation at 37°C
Protocol: This test was carried out, in the manner known from the literature, in 13 ml samples of expectorate collected from hospitalized patients, and stored in a freezer at -20°C until the testing time.
At the tested concentration of the compound undergoing the experiment (0.05M) a viscosity reduction of 16% (29% to 13%) was found. ^7

Sprague-Dawley male,rats = assay: yeast induced hyperpyrexy test (antipyretic activity); type: in vivo; settings: Rattus norvegicus, tested dosages 100, 200 and 400 mg/kg
Protocol: This test has been carried out in the manner known from the literature in Sprague-Dawley male,rats, having a body weight of 190-220g, which were selected according to the rectal temperature which was of between 37.0 and 37.7°C.
The hyperpyrexy was induced by subcutaneous injection of 2.0 ml of a 7.5% suspension of yeast as prepared at the moment.
The tested dosages were 100, 200 and 400 mg/kg and the found ED33 value was 802 mg/kg.

Swiss male albine mice = assay: acetic acid induced stretching or writhing inhibition test (analgesic activity); type: in vivo
Protocol: This test was carried out in Swiss male albine mice, having a body weight of 30-40 g through the "stretching or writhing" inhibition test, as induced by acetic acid, the test being carried out in a manner per se known from the literature.

[2] = test system: Sprague-Dawaley male rats; assay: carrageenin induced oedema test (anti-inflammatory activity); type: in vivo; settings: for ED33: Rattus norvegicus, carrageenin oedema inhibition
Protocol: This activity has been evaluated for the NXTP compound by the carrageenin induced oedema test, carried out in the manner known in the literature, in Sprague-Dawaley male rats, having a body weight of 180-200 g, the NXTP being administered to groups of 3 animals each at the dosages of 50, 100, 200 and 400 mg/kg, the results
being evalutaed in comparison with a control group.
Since in no caso an inhibition rate of 50% was attained, the value of ED 33 was calculated, it being 759 rng/kg (0,651 mM/kg).

solubility in water = type: physicochemical

solubility in water (solubility in water) | pH (solubility in water; pH of the product dissolved in water) | SMILES | viscosity reduction (net of the 13% reduction with physiological solution) [1] | viscosity reduction (total) [1] | ED33 (Sprague-Dawley male,rats) | ED50 (Swiss male albine mice; Mus musculus, sc, inhibition of contorsions induced by acetic acid, subcutaneous route, tested doses 50, 100 and 200 mg/kg) | inhibition of the number of contorsions (dose dependence) (Swiss male albine mice; doses 50, 100 and 200 mg/kg by subcutaneous route) | ED33 ([2]; same value in molar unit) | ED33 ([2]; tested dosages 50, 100, 200 and 400 mg/kg, calculated because 50% inhibition was not attained) | oedema inhibition (dose dependence) ([2]; dosages 50, 100, 200 and 400 mg/kg, versus control group) | inhibition rate ([2]; oedema inhibition at 50, 100, 200 and 400 mg/kg, 50% attained in no case)
 |  | COc1ccc2cc(C(C)C(=O)SC(C)C(=O)NCC(=O)O)ccc2c1 (racemic) [NXTP, propionylerytrhomycin salt of DL-2-(6-methoxy-2-napthyl)-propionyl-alpha-thio-propionylglycine] | 16% | 29% | 802 mg/kg | 400 mg/kg | in a rate proportional to the administered doses | 651 µmol/kg | 759 mg/kg | causes the oedema to be inhibited proportionally to the administered dose | < 50%
perfectly soluble in water |  | COc1ccc2cc(C(C)C(=O)SC(C)C(=O)NCC(=O)O)ccc2c1 (single isomer, unassigned) [L(+)-lysine salt of the DL-2-(6-methoxy-2-napthyl)-alpha- th] [L(+)lysine salt of DL-2-(6-methoxy-2-napthyl)-propionyl-alpha-thio-propionylglycine acid] |  |  |  |  |  |  |  |  | 
soluble in water | 7.3 | COc1ccc2cc(C(C)C(=O)SC(C)C(=O)NCC(=O)O)ccc2c1 (single isomer, unassigned) [arginine crystalline product, Arginine salt of DL-2-(6-methoxy-2-napthyl)propionyl-alpha-thio-propionylglycine] |  |  |  |  |  |  |  |  | 
